The results in this text go back to US9856264B2, “Isoquinolinesulfonyl derivative as RHO kinase inhibitor” (MEDSHINE DISCOVERY INC., priority 2014, dated 2018).

The target in the test is ROCK kinase. Nature of the test: In vitro ROCK kinase inhibition activity evaluation (33P-ATP filter-binding). The note with it: 1 nM ROCK kinase, 20 μM Long S6 Kinase substrate peptide, 2 h room temperature. Further details: key to ROCK inhibition activity: 1 μM ≦ + < 5 μM; 0.1 μM ≦ ++ < 1 μM; +++ < 0.1 μM; −− N/A. In kind it is biochemical. How it is done:
Biological Activity Experiment: In Vitro ROCK Kinase Inhibition Activity Evaluation
Experimental Objective: Test ROCK Inhibition IC50 Value of Invented Compounds
Buffer solution: 20 mM Hepes (pH 7.5), 10 mM MgCl2, 1 mM EGTA, 0.02% Brij35, 0.02 mg/ml BSA, 0.1 mM Na3VO4, 2 mM DTT, 1% DMSO
To a freshly prepared buffer solution was added ROCK substrate Long S6 Kinase substrate peptide, with concentration at 20 μM. 1 nM ROCK kinase was then added, and well stirred. A series of DMSO solution (starting from 10 μM, dilution factor 3) of testing article was added using Echo550. The mixture was incubated for 20 min at room temperature, then was added ^33P-ATP (radioactive intensity 10 μCi/μL) to initiate reaction and further reacted for 2 h at room temperature. The mixture was filtered through P81 ion exchange paper (Whatman #3698-915), and washed by 0.75% phosphoric acid. The intensity of radiation was measured by Filter-Binding method.
The inhibition activity of the testing articles were measured by comparing the residue kinase activity to blank substrate (pure DMSO). Using Prism software ((GraphPad Software, San Diego Calif., USA) to calculate IC50 and curve.
Take `O=S(=O)(c1cccc2cnccc12)N1CC[C@@H]2NCC[C@@H]21` (stereo in doubt) [Example 1, 5-((hexahydropyrrolo[3,2-b]pyrrol-1(2H)-yl)sulfonyl)isoquinoline]: the half-maximal inhibitory concentration (IC50) is 100 to 1000 nM.

Turning to `O=S(=O)(c1cccc2cnccc12)N1C[C@@H]2CCN[C@@H]2C1` (stereo in doubt) [Example 2, 5-((hexahydropyrrolo[3,4-b]pyrrol-5(1H)-yl)sulfonyl)isoquinoline], the IC50 is 100 to 1000 nM.

Regarding `O=S(=O)(c1cccc2cnccc12)N1C[C@H]2CCCN[C@H]2C1` (stereo in doubt) [Example 3, 5-((hexahydro-1H-pyrrolo[3,4-b]pyridin-6(2H)-yl)sulfonyl)isoquinoline], the IC50 fell in the range of 100 to 1000 nM.

In the case of `O=S(=O)(c1cccc2cncc(Cl)c12)N1CC[C@@H]2NCC[C@@H]21` (stereo in doubt) [Example 16, 4-chloro-5-((hexahydropyrrolo[3,2-b]pyrrol-1(2H)-yl)sulfonyl)isoquinoline], the IC50 fell in the range of 100 to 1000 nM.

Turning to `O=S(=O)(c1cccc2cncc(Cl)c12)N1C[C@@H]2CCN[C@@H]2C1` (stereo in doubt) [Example 17, 4-chloro-5-((hexahydropyrrolo[3,4-b]pyrrol-5 (1H)-yl)sulfonyl)isoquinoline], the IC50 was in the range of 100 to 1000 nM.

As for `O=S(=O)(c1cccc2cncc(Cl)c12)N1C[C@H]2CCCN[C@H]2C1` (stereo in doubt) [Example 18, 4-chloro-5-((hexahydro-1H-pyrrolo[3,4-b]pyridin-6(2H)-yl)sulfonyl)isoquinoline], the IC50 was 100 to 1000 nM.

Take `O=S(=O)(c1cccc2cncc(Cl)c12)N1C[C@H]2CN[C@H]2C1` (stereo in doubt) [Example 19, 5-(3,6-diazabicyclo[3.2.0]heptan-3-ylsulfonyl)-4-chloroisoquinoline]: the half-maximal inhibitory concentration (IC50) was < 100 nM.

Take `O=S(=O)(c1cccc2cncc(F)c12)N1CC[C@@H]2NCC[C@@H]21` (stereo in doubt) [Example 24, 4-fluoro-5-((hexahydropyrrolo[3,2-b]pyrrol-1(2H)-yl)sulfonyl)isoquinoline]: the IC50 was in the range of 1000 to 5000 nM.

Regarding `O=S(=O)(c1cccc2cncc(F)c12)N1C[C@H]2CCCN[C@H]2C1` (stereo in doubt) [Example 26, 4-fluoro-5-((hexahydro-1H-pyrrolo[3,4-b]pyridin-6(2H)-yl)sulfonyl)isoquinoline], the half-inhibitory concentration (IC50) lay within 100 to 1000 nM.

For `O=S(=O)(c1cccc2cncc(F)c12)N1C[C@H]2CN[C@H]2C1` (stereo in doubt) [Example 27, 5-(3,6-diazabicyclo[3.2.0]heptan-3-ylsulfonyl)-4-fluoroisoquinoline], the IC50 is 100 to 1000 nM.

For the compound `O=S(=O)(c1cccc2cncc(C(F)F)c12)N1CC[C@@H]2NCC[C@@H]21` (stereo in doubt) [Example 31, 4-(difluoromethyl)-5-((hexahydropyrrolo[3,2-b]pyrrol-1(2H)-yl)sulfonyl)isoquinoline], the ROCK inhibition activity entry is “−−”.

For `O=S(=O)(c1cccc2cncc(C(F)F)c12)N1C[C@@H]2CCN[C@@H]2C1` (stereo in doubt) [Example 32, 4-(difluoromethyl)-5-((hexahydropyrrolo[3,4-b]pyrrol-5(1H)-yl)sulfonyl)isoquinoline], the ROCK inhibition activity entry is “−−”.

Turning to `O=S(=O)(c1cccc2cncc(C(F)F)c12)N1C[C@H]2CCCN[C@H]2C1` (stereo in doubt) [Example 33, 4-(difluoromethyl)-5-((hexahydro-1H-pyrrolo[3,4-b]pyridin-6(2H)-yl)sulfonyl)isoquinoline], the ROCK inhibition activity entry is recorded as “−−”.

On to `O=S(=O)(c1cccc2cncc(C(F)F)c12)N1C[C@H]2CN[C@H]2C1` (stereo in doubt) [Example 34, 5-(3,6-diazabicyclo[3.2.0]heptan-3-ylsulfonyl)-4-(difluoromethyl)isoquinoline], for which the ROCK inhibition activity entry is “−−”.

For the compound `Cc1cncc2cccc(S(=O)(=O)N3CC[C@@H]4NCC[C@@H]43)c12` (stereo in doubt) [Example 37, 5-((hexahydropyrrolo[3,2-b]pyrrol-1(2H)-yl)sulfonyl)-4-methylisoquinoline], the 50% inhibitory concentration (IC50) is 100 to 1000 nM.

As to `Cc1cnc(O)c2cccc(S(=O)(=O)N3C[C@@H]4CCN[C@@H]4C3)c12` (stereo in doubt) [Example 39, 5-((hexahydropyrrolo[3,4-b]pyrrol-5(1H)-yl)sulfonyl)-4-methylisoquinolin-1-ol], the half-maximal inhibitory concentration (IC50) is 100 to 1000 nM.

For the compound `Cc1cncc2cccc(S(=O)(=O)N3C[C@H]4CCCN[C@H]4C3)c12` (stereo in doubt) [Example 40, 5-((hexahydro-1H-pyrrolo[3,4-b]pyridin-6(2H)-yl)sulfonyl)-4-methylisoquinoline], the IC50 is < 100 nM.

Turning to `Cc1cncc2cccc(S(=O)(=O)N3C[C@H]4CN[C@H]4C3)c12` (stereo in doubt) [Example 41, 5-(3,6-diazabicyclo[3.2.0]heptan-3-ylsulfonyl)-4-methylisoquinoline], the concentration for half-maximal inhibition (IC50) is < 100 nM.

As for `O=S(=O)(c1cccc2cncc(C(F)(F)F)c12)N1C[C@@H]2CCN[C@@H]2C1` (stereo in doubt) [Example 46, 5-((hexahydropyrrolo[3,4-b]pyrrol-5 (1H)-yl)sulfonyl)-4-(trifluoromethyl)isoquinoline], the ROCK inhibition activity result is listed as “−−”.

Regarding `COc1cncc2cccc(S(=O)(=O)N3CC[C@@H]4NCC[C@@H]43)c12` (stereo in doubt) [Example 47, 5-((hexahydropyrrolo[3,2-b]pyrrol-1(2H)-yl)sulfonyl)-4-methoxyisoquinoline], the IC50 fell in the range of 1000 to 5000 nM.

Take `COc1cncc2cccc(S(=O)(=O)N3C[C@@H]4CCN[C@@H]4C3)c12` (stereo in doubt) [Example 48, 5-((hexahydropyrrolo[3,4-b]pyrrol-5 (1H)-yl)sulfonyl)-4-methoxyisoquinoline]: the IC50 was 1000 to 5000 nM.

Consider `COc1cncc2cccc(S(=O)(=O)N3C[C@H]4CCCN[C@H]4C3)c12` (stereo in doubt) [Example 49, 5-((hexahydro-1H-pyrrolo[3,4-b]pyridin-6(2H)-yl)sulfonyl)-4-methoxyisoquinoline], for which the IC50 is 1000 to 5000 nM.

Regarding `COc1cncc2cccc(S(=O)(=O)N3C[C@H]4CN[C@H]4C3)c12` (stereo in doubt) [Example 50, 5-(3,6-diazabicyclo[3.2.0]heptan-3-ylsulfonyl)-4-methoxyisoquinoline], the concentration for half-maximal inhibition (IC50) was in the range of 1000 to 5000 nM.

For `O=S(=O)(c1cccc2cnccc12)N1CCC2NCCCC2C1` (stereo not drawn) [Example 5, 6-(isoquinolin-5-ylsulfonyl)decahydro-1,6-naphthyridine], the half-inhibitory concentration (IC50) was in the range of 100 to 1000 nM.

Regarding `O=S(=O)(c1cccc2cnccc12)N1CCC2NCCCC21` (stereo not drawn) [Example 6, 5-((octahydro-1H-pyrrolo[3,2-b]pyridin-1-yl)sulfonyl)isoquinoline], the IC50 was 100 to 1000 nM.

Take `O=S(=O)(c1cccc2cnccc12)N1C[C@H]2CNC[C@H]2C1` [Example 7, 5-((hexahydropyrrolo[3,4-c]pyrrol-2(1H)-yl)sulfonyl)isoquinoline]: the 50% inhibitory concentration (IC50) fell in the range of 100 to 1000 nM.

Consider `O=S(=O)(c1cccc2cnccc12)N1CC2CCNCC2C1` (stereo not drawn) [Example 8, 5-((hexahydro-1H-pyrrolo[3,4-c]pyridin-2(3H)-yl)sulfonyl)isoquinoline], for which the IC50 was in the range of 100 to 1000 nM.

Take `O=S(=O)(c1cccc2cnccc12)N1CCC2CCNC2C1` (stereo not drawn) [Example 9, 5-((hexahydro-1H-pyrrolo[2,3-c]pyridin-6(2H)-yl)sulfonyl) isoquinoline]: the IC50 is 1000 to 5000 nM.

Turning to `NC1CN(S(=O)(=O)c2cccc3cnccc23)CC12CC2` (stereo not drawn) [Example 10, 5-(isoquinolin-5-ylsulfonyl)-5-azaspiro[2.4]heptan-7-amine], the ROCK inhibition activity entry was “−−”.

In the case of `CCNC1CN(S(=O)(=O)c2cccc3cnccc23)CC12CC2` (stereo not drawn) [Example 11, N-ethyl-5-(isoquinolin-5-ylsulfonyl)-5-azaspiro[2.4]heptan-7-amine], the ROCK inhibition activity result is on record as “−−”.

Regarding `NC1CCN(S(=O)(=O)c2cccc3cnccc23)C12CC2` (stereo not drawn) [Example 13, 4-(isoquinolin-5-ylsulfonyl)-4-azaspiro[2.4]heptan-7-amine], the IC50 was < 100 nM.

Regarding `O=S(=O)(c1cccc2cnccc12)N1CCC2NCCCCC21` (stereo not drawn) [Example 14, 1-(isoquinolin-5-ylsulfonyl)decahydropyrrolo[3,2-b]azepine], the concentration for half-maximal inhibition (IC50) fell in the range of 100 to 1000 nM.

Regarding `O=S(=O)(c1cccc2cnccc12)N1CCC2CNCC2C1` (stereo not drawn) [Example 15, 5-((hexahydro-1H-pyrrolo[3,4-c]pyridin-5(6H)-yl)sulfonyl)isoquinoline], the IC50 is 100 to 1000 nM.

With `O=S(=O)(c1cccc2cncc(Cl)c12)N1CCC2NCCCC2C1` (stereo not drawn) [Example 20, 6-((4-chloroisoquinolin-5-yl)sulfonyl)decahydro-1,6-naphthyridine], the 50% inhibitory concentration (IC50) fell in the range of 100 to 1000 nM.

For the compound `O=S(=O)(c1cccc2cncc(Cl)c12)N1CCC2NCCCC21` (stereo not drawn) [Example 21, 4-chloro-5-((octahydro-1H-pyrrolo[3,2-b]pyridin-1-yl)sulfonyl)isoquinoline], the 50% inhibitory concentration (IC50) is 100 to 1000 nM.

Regarding `O=S(=O)(c1cccc2cncc(Cl)c12)N1C[C@H]2CNC[C@H]2C1` [Example 22, 4-chloro-5-((hexahydropyrrolo[3,4-c]pyrrol-2(1H)-yl)sulfonyl)isoquinoline], the half-inhibitory concentration (IC50) was 100 to 1000 nM.
